Measurements taken from patent publication US20190054045A1, “METHODS AND COMPOSITIONS FOR TREATING SKIN CONDITIONS” (priority 2017, published 2019).

Tests used:
[1] = system: burn scar; experiment: Topical metformin to treat a burn scar on intact skin (patient case); type: in vivo, human; conditions: 250 mg/mL in petrolatum ointment, two times per day
Method: A patient with a burn scar from a previously treated skin cancer complaining of a raised red and itchy scar on their chest received topical metformin in petrolatum ointment at 250 mg/mL with directions to apply the lotion to the affected area (red, raised fibrotic scarred skin on chest) two times per day.

[2] = system: surgical defect; experiment: Topical metformin to treat scarring on open skin (surgical defect, patient case); type: in vivo, human; conditions: topical ointment 250 mg/mL twice a day; within 4 weeks; in comparison to patients healing with topical petrolatum alone; observation by physician
Method: A patient with a previous surgical scar from removal of skin cancer with a scalpel received topical metformin ointment at 250 mg/mL with directions to apply the ointment twice a day to the surgical defect until healed (approximately 2-4 weeks).

CN(C)C(=N)N=C(N)N [metformin]
scarring of the skin ([1]; after one month): further improved | scarring of the skin (redness, itch, softness) ([1]; within 14 days, observation by physician and patient): visibly reduced with less redness, itch, and increased softness | scarring and redness of area [2]: minimal scaring and redness
